This is an account of results in patent publication US20120225062A1 (priority 2011, published 2012).

For experiment [1], the target named is Pim 2 (Homo sapiens, UniProt Q9P1W9). In words: Pim 2 AlphaScreen assay (high ATP). On the technique in general: Bead proximity is the source of the signal in Alpha formats.
The target of experiment [2] is Pim 1 (Homo sapiens, UniProt P11309). In words: Pim 1 AlphaScreen assay (high ATP).
In experiment [3] the target is Pim 3 (Homo sapiens, UniProt Q86V86). In words: Pim 3 AlphaScreen assay (high ATP).
The subject of experiment [4] is KMS11 (human myeloma cell line). In words: Cell Proliferation Assay (CellTiter-Glo, 3 days). The experiment is classed as cell-based. To be noted: KMS-11, 72 h, KMS11-luc cells. The method, boiled down:
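KMS11 myeloma cells, 2000 per well in IMDM with 10% FBS, exposed to compound for 3 days at 37° C. Viability read by CellTiter-Glo luminescence; EC50 derived.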
(In ATP-based viability assays light output follows the ATP content of the culture.)

Structures are written as SMILES.

Pim 1, sequence (P11309 whole entry): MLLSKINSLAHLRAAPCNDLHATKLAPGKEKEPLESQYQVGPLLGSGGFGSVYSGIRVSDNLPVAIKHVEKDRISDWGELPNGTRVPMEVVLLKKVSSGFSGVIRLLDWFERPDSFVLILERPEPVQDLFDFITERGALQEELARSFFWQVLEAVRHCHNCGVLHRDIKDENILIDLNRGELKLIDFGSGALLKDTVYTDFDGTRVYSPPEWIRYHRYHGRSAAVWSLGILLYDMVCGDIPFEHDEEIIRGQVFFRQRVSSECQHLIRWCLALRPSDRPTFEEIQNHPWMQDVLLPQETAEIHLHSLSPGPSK
Pim 2, sequence (Q9P1W9 whole entry): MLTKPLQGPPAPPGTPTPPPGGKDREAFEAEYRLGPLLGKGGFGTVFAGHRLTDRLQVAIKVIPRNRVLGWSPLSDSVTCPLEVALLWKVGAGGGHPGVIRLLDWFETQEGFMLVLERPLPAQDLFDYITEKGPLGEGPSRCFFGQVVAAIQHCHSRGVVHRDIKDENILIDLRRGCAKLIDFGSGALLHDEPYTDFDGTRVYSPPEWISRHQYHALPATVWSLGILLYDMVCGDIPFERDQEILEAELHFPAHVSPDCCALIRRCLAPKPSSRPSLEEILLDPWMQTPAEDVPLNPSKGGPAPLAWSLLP

In general, IC50 refers to the concentration needed to halve the response being measured. Low values mean greater potency, high ones weaker potency. The term EC50 denotes the concentration giving half of the maximal effect. A high value points to a need for much substance. On to `Cc1noc(C)c1-c1cc(F)c(-c2nc(C(=O)Nc3cnccc3[C@H]3C[C@@H](N)[C@H](O)[C@@H](C)C3)ccc2F)c(F)c1` [Example 173, N-(4-((1R,3R,4R,5S)-3-amino-4-hydroxy-5-methylcyclohexyl)pyridin-3-yl)-6-(4-(3,5-dimethylisoxazol-4-yl)-2,6-difluorophenyl)-5-fluoropicolinamide], for which the IC50 in experiment [1] came to 58.5 nM; in experiment [2], 0.26 nM; in experiment [3], 29.5 nM. Also, the EC50 in experiment [4] stood at 2440 nM.
Regarding `Cc1noc(C)c1-c1cc(F)c(-c2nc(C(=O)Nc3cnccc3[C@@H]3C[C@H](C)C[C@H](N)C3)ccc2F)c(F)c1` [Example 174, N-(4-((1R,3S,5S)-3-amino-5-methylcyclohexyl)pyridin-3-yl)-6-(4-(3,5-dimethylisoxazol-4-yl)-2,6-difluorophenyl)-5-fluoropicolinamide], the figures for the IC50 in experiment [1], in experiment [2] and in experiment [3] were 30 nM, 0.08 nM and 10.1 nM, respectively. For the same molecule, in experiment [4], the half-maximal effective concentration (EC50) was determined as 1020 nM.
Consider `COCCOc1cc(F)c(-c2nc(C(=O)Nc3cnccc3[C@H]3C[C@@H](N)C[C@@H](C(C)C)C3)ccc2F)c(F)c1` [Example 175, N-(4-((1R,3S,5S)-3-amino-5-isopropylcyclohexyl)pyridin-3-yl)-6-(2,6-difluoro-4-(2-methoxyethoxy)phenyl)-5-fluoropicolinamide], for which the figures for the concentration for half-maximal inhibition (IC50) in experiment [1], in experiment [2] and in experiment [3] were 0.98 nM, 0.01 nM and 0.46 nM, respectively. The same molecule came in with a half-maximal effective concentration (EC50) in experiment [4] of 176 nM.
For `COCCCOc1cc(F)c(-c2nc(C(=O)Nc3cnccc3[C@@H]3C[C@H](C)C[C@H](N)C3)ccc2F)c(F)c1` [Example 176, N-(4-((1R,3S,5S)-3-amino-5-methylcyclohexyl)pyridin-3-yl)-6-(2,6-difluoro-4-(3-methoxypropoxy)phenyl)-5-fluoropicolinamide], the 50% inhibitory concentration (IC50) worked out at 1.62 nM in experiment [1], 0.01 nM in experiment [2] and 0.48 nM in experiment [3]. Also, in experiment [4], the EC50 is 182 nM.
In the same order, the values of `C[C@@H]1C[C@H](N)C[C@H](c2ccncc2NC(=O)c2ccc(F)c(-c3c(F)cc(OCC4CCOCC4)cc3F)n2)C1` [Example 177, N-(4-((1R,3S,5S)-3-amino-5-methylcyclohexyl)pyridin-3-yl)-6-(2,6-difluoro-4-((tetrahydro-2H-pyran-4-yl)methoxy)phenyl)-5-fluoropicolinamide] are 1.33 nM, 0.02 nM, 0.78 nM and 381 nM.
`C[C@H]1C[C@@H](c2ccncc2NC(=O)c2ccc(F)c(-c3c(F)cc(OCC4CCOCC4)cc3F)n2)C[C@@H](N)[C@@H]1O` [Example 178, N-(4-((1R,3R,4R,5S)-3-amino-4-hydroxy-5-methylcyclohexyl)pyridin-3-yl)-6-(2,6-difluoro-4-((tetrahydro-2H-pyran-4-yl)methoxy)phenyl)-5-fluoropicolinamide]: the values for the IC50 in experiment [1], in experiment [2] and in experiment [3] were 1.42 nM, 0.03 nM and 0.84 nM, respectively. For the same molecule, a half-maximal effect in experiment [4] (EC50) was put at 395 nM.
For `C[C@@H]1C[C@H](N)C[C@H](c2ccncc2NC(=O)c2ccc(F)c(-c3c(F)cc4c(c3F)OCC4)n2)C1` [Example 179, N-(4-((1R,3S,5S)-3-amino-5-methylcyclohexyl)pyridin-3-yl)-6-(5,7-difluoro-2,3-dihydrobenzofuran-6-yl)-5-fluoropicolinamide], the IC50 was found to be 0.51 nM in experiment [1], 0.01 nM in experiment [2] and 0.3 nM in experiment [3]. The same molecule returned an EC50 in experiment [4] of 77 nM.
As for `C[C@H]1C[C@@H](c2ccncc2NC(=O)c2ccc(F)c(-c3c(F)cc4c(c3F)OCC4)n2)C[C@@H](N)[C@@H]1O` [Example 180, N-(4-((1R,3R,4R,5S)-3-amino-4-hydroxy-5-methylcyclohexyl)pyridin-3-yl)-6-(5,7-difluoro-2,3-dihydrobenzofuran-6-yl)-5-fluoropicolinamide], the results for the half-maximal inhibitory concentration (IC50) in experiment [1], in experiment [2] and in experiment [3] were 0.92 nM, 0.02 nM and 0.58 nM, respectively. The molecule further displayed an EC50 in experiment [4] of 145 nM.
As for `C[C@@H]1C[C@H](N)C[C@H](c2ccncc2NC(=O)c2ccc(F)c(-c3c(F)cc(C(C)(C)C(=O)O)cc3F)n2)C1` [Example 181, 2-(4-(6-(4-((1R,3S,5S)-3-amino-5-methylcyclohexyl)pyridin-3-ylcarbamoyl)-3-fluoropyridin-2-yl)-3,5-difluorophenyl)-2-methylpropanoic acid], the figures for the concentration for half-maximal inhibition (IC50) in experiment [1], in experiment [2] and in experiment [3] were 4.75 nM, 0.45 nM and 20.9 nM, respectively. Besides, the EC50 in experiment [4] was above 10000 nM.
With `COCCCOc1cc(F)c(-c2nc(C(=O)Nc3cnccc3[C@H]3C[C@@H](N)[C@H](O)[C@@H](C)C3)ccc2F)c(F)c1` [Example 184, N-(4-((1R,3R,4R,5S)-3-amino-4-hydroxy-5-methylcyclohexyl)pyridin-3-yl)-6-(2,6-difluoro-4-(3-methoxypropoxy)phenyl)-5-fluoropicolinamide], the IC50 turned out to be 3.54 nM in experiment [1], 0.03 nM in experiment [2] and 0.93 nM in experiment [3]. In experiment [4], this molecule gave an EC50 of 161 nM.
As for `C[C@@H]1C[C@H](N)C[C@H](c2ccncc2NC(=O)c2ccc(F)c(-c3c(F)cc(OCC4(C#N)CCOCC4)cc3F)n2)C1` [Example 185, N-(4-((1R,3S,5S)-3-amino-5-methylcyclohexyl)pyridin-3-yl)-6-(4-((4-cyanotetrahydro-2H-pyran-4-yl)methoxy)-2,6-difluorophenyl)-5-fluoropicolinamide], the IC50 in experiment [1] was 4.04 nM; in experiment [2] it was 0.02 nM; in experiment [3], 2.44 nM. In addition, the concentration for a half-maximal effect (EC50) in experiment [4] turned out to be 632 nM.
Taken in the same sequence, the figures for `C[C@H]1C[C@@H](c2ccncc2NC(=O)c2ccc(F)c(-c3c(F)cc(OCC4(C#N)CCOCC4)cc3F)n2)C[C@@H](N)[C@@H]1O` [Example 186, N-(4-((1R,3R,4R,5S)-3-amino-4-hydroxy-5-methylcyclohexyl)pyridin-3-yl)-6-(4-((4-cyanotetrahydro-2H-pyran-4-yl)methoxy)-2,6-difluorophenyl)-5-fluoropicolinamide] were 3 nM, 0.04 nM, 1.32 nM and 527 nM.
On to `C[C@@H]1C[C@H](N)C[C@H](c2ccncc2NC(=O)c2cccc(-c3c(F)cc(OC4CCOCC4)cc3F)n2)C1` [Example 187, N-(4-((1R,3S,5S)-3-amino-5-methylcyclohexyl)pyridin-3-yl)-6-(2,6-difluoro-4-(tetrahydro-2H-pyran-4-yloxy)phenyl)picolinamide], for which the half-maximal inhibitory concentration (IC50) in experiment [1] is 2.47 nM; in experiment [2], 0.03 nM; in experiment [3] it was 1.28 nM. Besides, a half-maximal effect in experiment [4] (EC50) was put at 210 nM.
Take `COCCOc1cc(F)c(-c2cccc(C(=O)Nc3cnccc3[C@@H]3C[C@H](C)C[C@H](N)C3)n2)c(F)c1` [Example 188, N-(4-((1R,3S,5S)-3-amino-5-methylcyclohexyl)pyridin-3-yl)-6-(2,6-difluoro-4-(2-methoxyethoxy)phenyl)picolinamide]: the IC50 in experiment [1] worked out at 3.96 nM; in experiment [2] it was 0.07 nM; in experiment [3] it was 1.96 nM. This molecule also registered a concentration for a half-maximal effect (EC50) in experiment [4] of 478 nM.
